This passage reports IC50 results from patent US11021493B2, “1,4-thiazine dioxide and 1,2,4-thiadiazine dioxide derivatives as beta-secretase inhibitors and methods of use” (AMGEN INC., priority 2016, dated 2021).

The IC50 is the concentration that inhibits the measured activity by half.

Experiment [1] concerns the target T1, BACE1 (Homo sapiens (Human), UniProt P56817). Briefly: In vitro enzymatic BACE1 FRET assay. As to conditions: read-out: BACE1 Enzyme IC50. Format: biochemical.
Target sequence in this assay (P56817 46-501): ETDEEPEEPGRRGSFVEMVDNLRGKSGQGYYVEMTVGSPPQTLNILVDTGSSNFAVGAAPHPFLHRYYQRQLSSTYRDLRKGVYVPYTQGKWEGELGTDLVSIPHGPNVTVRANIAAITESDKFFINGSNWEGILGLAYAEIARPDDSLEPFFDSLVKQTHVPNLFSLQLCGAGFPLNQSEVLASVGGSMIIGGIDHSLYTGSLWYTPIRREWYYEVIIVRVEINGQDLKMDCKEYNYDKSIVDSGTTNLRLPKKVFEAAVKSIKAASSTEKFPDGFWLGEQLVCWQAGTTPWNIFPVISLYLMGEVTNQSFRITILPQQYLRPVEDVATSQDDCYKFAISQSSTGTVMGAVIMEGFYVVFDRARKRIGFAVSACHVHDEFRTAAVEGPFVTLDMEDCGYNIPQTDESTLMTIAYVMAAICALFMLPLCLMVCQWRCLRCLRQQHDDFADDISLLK
The target of experiment [2] is T1, BACE1. Briefly: In vitro BACE1 cell-based assay (Aβ40 in conditioned medium of cells stably expressing APP, HTRF). As to conditions: Aβ40 in conditioned media after 24 h incubation. In general terms: In TR-FRET formats the signal depends on donor and acceptor labels being close together.
Target sequence in this assay (P56817 46-501, species assumed): as the sequence (P56817 46-501) above
The target of experiment [3] is human recombinant BACE2 (Homo sapiens (Human), UniProt Q9Y5Z0). Put plainly: In vitro enzymatic BACE2 FRET assay. It is filed as biochemical. The following applies: read-out: BACE2 Enzyme IC50.
The target in experiment [4] is Cathepsin D (CatD) (Homo sapiens (Human), UniProt P07339). Put plainly: In vitro enzymatic Cathepsin D (CatD) FRET assay. It is filed as biochemical. As to conditions: read-out: Cat D Enzyme IC50.
Chain of Cathepsin D (CatD) (P07339 65-412, species assumed): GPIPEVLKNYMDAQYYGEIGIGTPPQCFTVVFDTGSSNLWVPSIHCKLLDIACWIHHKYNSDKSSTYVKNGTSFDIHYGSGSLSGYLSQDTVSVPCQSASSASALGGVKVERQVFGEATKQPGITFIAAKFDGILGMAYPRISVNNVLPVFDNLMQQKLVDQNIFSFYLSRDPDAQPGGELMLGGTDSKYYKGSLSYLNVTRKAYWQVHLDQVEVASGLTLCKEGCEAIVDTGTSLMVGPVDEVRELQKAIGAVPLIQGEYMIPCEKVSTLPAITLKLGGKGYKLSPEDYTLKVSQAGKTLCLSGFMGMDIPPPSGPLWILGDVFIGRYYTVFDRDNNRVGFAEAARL

Chain of human recombinant BACE2 (Q9Y5Z0 63-518): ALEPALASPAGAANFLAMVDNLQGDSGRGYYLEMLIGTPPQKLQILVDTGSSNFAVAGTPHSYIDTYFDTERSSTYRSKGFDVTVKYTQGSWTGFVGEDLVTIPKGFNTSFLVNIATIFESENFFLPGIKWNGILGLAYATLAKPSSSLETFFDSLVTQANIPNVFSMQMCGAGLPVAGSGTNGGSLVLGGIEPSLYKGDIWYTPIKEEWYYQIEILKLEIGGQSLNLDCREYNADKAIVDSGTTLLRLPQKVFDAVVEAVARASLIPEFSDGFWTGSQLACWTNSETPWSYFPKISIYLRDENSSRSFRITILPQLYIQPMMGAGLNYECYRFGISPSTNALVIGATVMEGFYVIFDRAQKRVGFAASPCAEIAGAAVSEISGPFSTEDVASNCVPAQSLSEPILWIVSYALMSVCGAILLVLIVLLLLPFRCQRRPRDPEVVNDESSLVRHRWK

With `CC1(C)C(N)=N[C@](C)(c2cc(/C=C(\F)c3cnc(OCc4ncco4)cn3)ccc2F)CS1(=O)=O` [Example 129, (R,Z)-5-amino-3-(2-fluoro-5-(2-fluoro-2-(5-(oxazol-2-ylmethoxy)pyrazin-2-yl)vinyl)phenyl)-3,6,6-trimethyl-3,6-dihydro-2H-1,4-thiazine 1,1-dioxide], the IC50 was 7 nM in experiment [1], 5 nM in experiment [2], 56 nM in experiment [3] and 163000 nM in experiment [4].

Turning to `C[C@@H](CO)Oc1cnc(/C(F)=C/c2ccc(F)c([C@]3(C)CS(=O)(=O)C(C)(C)C(N)=N3)c2)cn1` [Example 218, (R)-5-amino-3-(2-fluoro-5-((Z)-2-fluoro-2-(5-(((S)-1-hydroxypropan-2-yl)oxy)pyrazin-2-yl)vinyl)phenyl)-3,6,6-trimethyl-3,6-dihydro-2H-1,4-thiazine 1,1-dioxide], the IC50 was 180 nM in experiment [1], 529 nM in experiment [2], 285 nM in experiment [3] and 195000 nM in experiment [4].

Take `CCC#C[C@@H](C)Oc1cnc(/C(F)=C/c2ccc(F)c([C@]3(C)CS(=O)(=O)C(C)(C)C(N)=N3)c2)cn1` (single isomer, unassigned) [Example 216]: the half-inhibitory concentration (IC50) in experiment [1] came out at 628 nM; in experiment [2], 5360 nM; in experiment [3], 364 nM; in experiment [4], 29900 nM.

For the compound `Cc1cc(C#N)cnc1/C(F)=C/c1ccc(F)c([C@]2(C)CS(=O)(=O)N(C)C(N)=N2)c1` [Example 245, 6-((Z)-2-(3-((5R)-3-amino-2,5-dimethyl-1,1-dioxido-5,6-dihydro-2H-1,2,4-thiadiazin-5-yl)-4-fluorophenyl)-1-fluoroethenyl)-5-methyl-3-pyridinecarbonitrile], the IC50 in experiment [1] was 5 nM; in experiment [2] it was 4 nM; in experiment [3], 21 nM; in experiment [4], 137000 nM.

With `CN1C(N)=N[C@](C)(c2cc(/C=C(\F)c3ccc(C#N)cn3)cc(F)c2F)CS1(=O)=O` [Example 107, (R,Z)-6-(2-(3-(3-amino-2,5-dimethyl-1,1-dioxido-5,6-dihydro-2H-1,2,4-thiadiazin-5-yl)-4,5-difluorophenyl)-1-fluorovinyl)nicotinonitrile], the IC50 turned out to be 3 nM in experiment [1], 3 nM in experiment [2], 25 nM in experiment [3] and 81800 nM in experiment [4].

With `COC[C@H](C)Oc1cnc(/C(F)=C/c2ccc(F)c([C@]3(C)CS(=O)(=O)N(C)C(N)=N3)c2)cn1` [Example 164, (R)-3-amino-5-(2-fluoro-5-((Z)-2-fluoro-2-(5-(((S)-1-methoxypropan-2-yl)oxy)pyrazin-2-yl)vinyl)phenyl)-2,5-dimethyl-5,6-dihydro-2H-1,2,4-thiadiazine 1,1-dioxide], the IC50 was 11 nM in experiment [1], 11 nM in experiment [2], 108 nM in experiment [3] and 107000 nM in experiment [4].

On to `CN1C(N)=N[C@](C)(c2cc(/C=C(\F)c3cnc(C4CC4)cn3)ccc2F)CS1(=O)=O` [Example 266, (R,Z)-3-amino-5-(5-(2-(5-cyclopropylpyrazin-2-yl)-2-fluorovinyl)-2-fluorophenyl)-2,5-dimethyl-5,6-dihydro-2H-1,2,4-thiadiazine 1,1-dioxide], for which the IC50 in experiment [1] worked out at 750 nM; in experiment [2], 653 nM; in experiment [3] it was 78 nM; in experiment [4] it was 69800 nM.

`CC#CCOc1cnc(/C(F)=C/c2ccc(F)c([C@@]3(C)N=C(N)N(C)S(=O)(=O)C3(C)C)c2)cn1` [Example 185, (R,Z)-3-amino-5-(5-(2-(5-(but-2-yn-1-yloxy)pyrazin-2-yl)-2-fluorovinyl)-2-fluorophenyl)-2,5,6,6-tetramethyl-5,6-dihydro-2H-1,2,4-thiadiazine 1,1-dioxide]: the IC50 worked out at 2 nM in experiment [1], 5 nM in experiment [2], 159 nM in experiment [3] and 259000 nM in experiment [4].

`CC1(C)C(N)=N[C@](C)(c2cc(/C=C(\F)c3cnc(OCC4CCCCC4)cn3)ccc2F)CS1(=O)=O` [Example 150, (R,Z)-5-amino-3-(5-(2-(5-(cyclohexylmethoxy)pyrazin-2-yl)-2-fluorovinyl)-2-fluorophenyl)-3,6,6-trimethyl-3,6-dihydro-2H-1,4-thiazine 1,1-dioxide]: the IC50 in experiment [1] was determined as 46 nM; in experiment [2] it was 1620 nM; in experiment [3], 155 nM; in experiment [4], 13800 nM.

Consider `C#C[C@@H](CC)Oc1cnc(/C(F)=C/c2ccc(F)c([C@]3(C)CS(=O)(=O)C(C)(C)C(N)=N3)c2)cn1` (single isomer, unassigned) [Example 177], for which the IC50 in experiment [1] came out at 208 nM; in experiment [2] it was 600 nM; in experiment [3], 101 nM; in experiment [4] it was 61400 nM.

As for `CN1C(N)=N[C@](C)(c2cc(/C=C(\F)c3nc(C#N)cs3)ccc2F)CS1(=O)=O` [Example 267, 2-((Z)-2-(3-((5R)-3-amino-2,5-dimethyl-1,1-dioxido-5,6-dihydro-2H-1,2,4-thiadiazin-5-yl)-4-fluorophenyl)-1-fluoroethenyl)-1,3-thiazole-4-carbonitrile], the IC50 in experiment [1] stood at 26 nM; in experiment [2], 38 nM; in experiment [3] it was 6 nM; in experiment [4], 57500 nM.

Regarding `CN1C(N)=N[C@](C)(c2cc(/C=C(\F)c3cnc(OCC4CC4)cn3)ccc2F)CS1(=O)=O` [Example 143, (R,Z)-3-amino-5-(5-(2-(5-(cyclopropylmethoxy)pyrazin-2-yl)-2-fluorovinyl)-2-fluorophenyl)-2,5-dimethyl-5,6-dihydro-2H-1,2,4-thiadiazine 1,1-dioxide], the concentration for half-maximal inhibition (IC50) in experiment [1] was found to be 44 nM; in experiment [2] it was 380 nM; in experiment [3], 222 nM; in experiment [4], 30500 nM.

`CN1C(N)=N[C@](C)(c2cc(/C=C(\F)c3cnc(Cl)cn3)ccc2F)C(C)(C)S1(=O)=O` [Example 182, (R,Z)-3-amino-5-(5-(2-(5-chloropyrazin-2-yl)-2-fluorovinyl)-2-fluorophenyl)-2,5,6,6-tetramethyl-5,6-dihydro-2H-1,2,4-thiadiazine 1,1-dioxide]: the half-maximal inhibitory concentration (IC50) in experiment [1] is 39 nM; in experiment [2] it was 318 nM; in experiment [3], 76 nM; in experiment [4] it was 217000 nM.

Consider `C[C@H]1COc2cnc(/C(F)=C/c3ccc(F)c([C@]4(C)CS(=O)(=O)N(C)C(N)=N4)c3)nc2O1` [Example 236, (R)-3-amino-5-(2-fluoro-5-((Z)-2-fluoro-2-((S)-7-methyl-6,7-dihydro-[1,4]dioxino[2,3-d]pyrimidin-2-yl)vinyl)phenyl)-2,5-dimethyl-5,6-dihydro-2H-1,2,4-thiadiazine 1,1-dioxide], for which the concentration for half-maximal inhibition (IC50) in experiment [1] was found to be 1120 nM; in experiment [2], 410 nM; in experiment [3], 2360 nM; in experiment [4] it was 55200 nM.

As to `CN1C(N)=N[C@](C)(c2cc(/C=C(\F)c3cc(F)c(Cl)cn3)ccc2F)CS1(=O)=O` [Example 232, (R,Z)-3-amino-5-(5-(2-(5-chloro-4-fluoropyridin-2-yl)-2-fluorovinyl)-2-fluorophenyl)-2,5-dimethyl-5,6-dihydro-2H-1,2,4-thiadiazine 1,1-dioxide], the IC50 in experiment [1] worked out at 7 nM; in experiment [2], 29 nM; in experiment [3], 2 nM; in experiment [4] it was 68800 nM.

Take `Cc1nnc(COc2cnc(/C(F)=C/c3ccc(F)c([C@]4(C)CS(=O)(=O)N(C)C(N)=N4)c3)cn2)o1` [Example 173, (R,Z)-3-amino-5-(2-fluoro-5-(2-fluoro-2-(5-((5-methyl-1,3,4-oxadiazol-2-yl)methoxy)pyrazin-2-yl)vinyl)phenyl)-2,5-dimethyl-5,6-dihydro-2H-1,2,4-thiadiazine 1,1-dioxide]: the 50% inhibitory concentration (IC50) in experiment [1] was 7 nM; in experiment [2], 9 nM; in experiment [3] it was 103 nM; in experiment [4], 78100 nM.

Regarding `CN1C(N)=N[C@](C)(c2cc(/C=C(\F)c3cc(F)c(C#N)cn3)ccc2F)CS1(=O)=O` [Example 226, 6-((Z)-2-(3-((5R)-3-amino-2,5-dimethyl-1,1-dioxido-5,6-dihydro-2H-1,2,4-thiadiazin-5-yl)-4-fluorophenyl)-1-fluoroethenyl)-4-fluoro-3-pyridinecarbonitrile], the concentration for half-maximal inhibition (IC50) in experiment [1] was found to be 7 nM; in experiment [2], 341 nM; in experiment [3], 14 nM; in experiment [4], 47000 nM.

Take `CN1C(N)=N[C@](C)(c2cc(/C=C(\F)c3cnc(Cl)cn3)ccc2F)CS1(=O)=O` [Example 111, (R,Z)-3-amino-5-(5-(2-(5-chloropyrazin-2-yl)-2-fluorovinyl)-2-fluorophenyl)-2,5-dimethyl-5,6-dihydro-2H-1,2,4-thiadiazine 1,1-dioxide]: the IC50 was found to be 7 nM in experiment [1], 6 nM in experiment [2], 5 nM in experiment [3] and 86300 nM in experiment [4].

In the case of `CC1(C)C(N)=N[C@](C)(c2cc(/C=C(\F)c3cc4c(cn3)OCCO4)ccc2F)CS1(=O)=O` [Example 184, (R,Z)-5-amino-3-(5-(2-(2,3-dihydro-[1,4]dioxino[2,3-c]pyridin-7-yl)-2-fluorovinyl)-2-fluorophenyl)-3,6,6-trimethyl-3,6-dihydro-2H-1,4-thiazine 1,1-dioxide], the IC50 in experiment [1] is 296 nM; in experiment [2] it was 277 nM; in experiment [3], 790 nM; in experiment [4] it was 335000 nM.

`CN1C(N)=N[C@](C)(c2cc(/C=C(\F)c3cnc(OCC(F)(F)F)cn3)ccc2F)C2(CC2)S1(=O)=O` [Example 163, (8R)-8-(2-fluoro-5-((Z)-2-fluoro-2-(5-(2,2,2-trifluoroethoxy)-2-pyrazinyl)ethenyl)phenyl)-5,8-dimethyl-4-thia-5,7-diazaspiro[2.5]oct-6-en-6-amine 4,4-dioxide]: the concentration for half-maximal inhibition (IC50) in experiment [1] came out at 133 nM; in experiment [2] it was 1120 nM; in experiment [3], 2880 nM; in experiment [4] it was 223000 nM.
